Tested on: MV-4-11 cells
Assay: Gene expression microarray analysis (Affymetrix PrimeView) and GSEA
Type: cell-based, human
Parameters: RFU PODN (11730768_x_at) / Fold change /veh PODN (11730768_x_at) / RFU LINC00158 (11744669_a_at) / Fold change /veh LINC00158 (11744669_a_at) / RFU DUSP10 (11751237_a_at) / Fold change /veh DUSP10 (11751237_a_at) / RFU ID3 (11757404_x_at) / Fold change /veh ID3 (11757404_x_at) / RFU PLEKHG5 (11737974_s_at) / Fold change /veh PLEKHG5 (11737974_s_at) / RFU LRRC4B (11730491_at) / Fold change /veh LRRC4B (11730491_at) / RFU GIMAP4 (11747438_a_at) / Fold change /veh GIMAP4 (11747438_a_at) / RFU KRT8 (11758183_x_at) / Fold change /veh KRT8 (11758183_x_at) / RFU CNN1 (11734310_a_at) / Fold change /veh CNN1 (11734310_a_at) / RFU VPS37D (11726825_at) / Fold change /veh VPS37D (11726825_at) / RFU C10orf10 (11716522_x_at) / Fold change /veh C10orf10 (11716522_x_at) / RFU KIR2DL2 /// KIR2DL4 /// KIR2DL5A /// KIR2DL5B /// KIR2DS1 /// KIR2DS2 /// KIR2DS3 /// KIR2DS4 /// KIR3DL3 /// KIR3DL3 /// KIR3DS1 (11738374_at) / Fold change /veh KIR2DL2 /// KIR2DL4 /// KIR2DL5A /// KIR2DL5B /// KIR2DS1 /// KIR2DS2 /// KIR2DS3 /// KIR2DS4 /// KIR3DL3 /// KIR3DL3 /// KIR3DS1 (11738374_at) / RFU C1QL1 (11718748_at) / Fold change /veh C1QL1 (11718748_at) / RFU TMPRSS4 (11747572_a_at) / Fold change /veh TMPRSS4 (11747572_a_at) / RFU HAMP (11756126_x_at) / Fold change /veh HAMP (11756126_x_at) / RFU RNFT2 (11725882_a_at) / Fold change /veh RNFT2 (11725882_a_at) / RFU NR4A2 (11747474_a_at) / Fold change /veh NR4A2 (11747474_a_at) / RFU ABCC12 (11746883_a_at) / Fold change /veh ABCC12 (11746883_a_at) / RFU TMEM136 (11760407_x_at) / Fold change /veh TMEM136 (11760407_x_at) / RFU CLDN22 /// WWC2 (11732394_at) / Fold change /veh CLDN22 /// WWC2 (11732394_at) / RFU HLA-DPB1 (11760878_x_at) / Fold change /veh HLA-DPB1 (11760878_x_at) / RFU SPINT1 (11716480_a_at) / Fold change /veh SPINT1 (11716480_a_at) / RFU GAP43 (11754022_s_at) / Fold change /veh GAP43 (11754022_s_at) / RFU A4GNT (11735810_at) / Fold change /veh A4GNT (11735810_at) / RFU PRB3 (11715151_x_at) / Fold change /veh PRB3 (11715151_x_at) / RFU TUBB4B (11761932_at) / Fold change /veh TUBB4B (11761932_at) / RFU CAPN14 (11732068_a_at) / Fold change /veh CAPN14 (11732068_a_at) / RFU TMCC2 (11721928_a_at) / Fold change /veh TMCC2 (11721928_a_at) / RFU IRGQ (11745062_a_at) / Fold change /veh IRGQ (11745062_a_at) / RFU FAM174B (11720279_a_at) / Fold change /veh FAM174B (11720279_a_at) / RFU TMPRSS4 (11748680_a_at) / Fold change /veh TMPRSS4 (11748680_a_at) / RFU FAM212B (11763350_a_at) / Fold change /veh FAM212B (11763350_a_at) / RFU PLEKHG5 (11743358_a_at) / Fold change /veh PLEKHG5 (11743358_a_at) / RFU ZSCAN30 (11745921_a_at) / Fold change /veh ZSCAN30 (11745921_a_at) / RFU CMKLR1 (11741424_a_at) / Fold change /veh CMKLR1 (11741424_a_at) / RFU LOC101060620 /// MAPK8IP1 (11723275_at) / Fold change /veh LOC101060620 /// MAPK8IP1 (11723275_at) / RFU SPTSSB (11747773_x_at) / Fold change /veh SPTSSB (11747773_x_at) / RFU PRSS12 (11739890_at) / Fold change /veh PRSS12 (11739890_at) / RFU BIN1 (11741810_x_at) / Fold change /veh BIN1 (11741810_x_at) / RFU WNT11 (11732464_a_at) / Fold change /veh WNT11 (11732464_a_at) / RFU C10orf10 (11716521_a_at) / Fold change /veh C10orf10 (11716521_a_at) / RFU C5orf56 (11738089_at) / Fold change /veh C5orf56 (11738089_at) / RFU CYB561 (11721691_x_at) / Fold change /veh CYB561 (11721691_x_at) / RFU ANKRD19P (11752326_a_at) / Fold change /veh ANKRD19P (11752326_a_at) / RFU OR2T12 /// OR2T33 /// OR2T8 (11738714_s_at) / Fold change /veh OR2T12 /// OR2T33 /// OR2T8 (11738714_s_at) / RFU VCAN (11748164_a_at) / Fold change /veh VCAN (11748164_a_at) / RFU JSRP1 (11732532_at) / Fold change /veh JSRP1 (11732532_at) / RFU KRTAP10-11 (11738290_x_at) / Fold change /veh KRTAP10-11 (11738290_x_at) / RFU MYO3A (11730013_a_at) / Fold change /veh MYO3A (11730013_a_at) / RFU EBF3 (11725865_a_at) / Fold change /veh EBF3 (11725865_a_at) / RFU CAMK2N1 (11719241_x_at) / Fold change /veh CAMK2N1 (11719241_x_at) / RFU C5orf56 (11738088_a_at) / Fold change /veh C5orf56 (11738088_a_at) / RFU OLFML3 (11715873_a_at) / Fold change /veh OLFML3 (11715873_a_at) / RFU LOC100653217 /// NTM (11731650_a_at) / Fold change /veh LOC100653217 /// NTM (11731650_a_at) / RFU MAPK11 (11762145_a_at) / Fold change /veh MAPK11 (11762145_a_at) / RFU FIZ1 (11724087_x_at) / Fold change /veh FIZ1 (11724087_x_at) / RFU OASL (11726364_x_at) / Fold change /veh OASL (11726364_x_at) / RFU SOX15 (11748057_x_at) / Fold change /veh SOX15 (11748057_x_at) / RFU CD79A (11719716_a_at) / Fold change /veh CD79A (11719716_a_at) / RFU HIST1H1D (11736915_at) / Fold change /veh HIST1H1D (11736915_at) / RFU CASKIN2 (11723855_a_at) / Fold change /veh CASKIN2 (11723855_a_at) / RFU LOC730098 (11760151_x_at) / Fold change /veh LOC730098 (11760151_x_at) / RFU OR4N2 (11742367_at) / Fold change /veh OR4N2 (11742367_at) / RFU PRRT2 (11749266_a_at) / Fold change /veh PRRT2 (11749266_a_at) / RFU SNX32 (11753110_a_at) / Fold change /veh SNX32 (11753110_a_at) / RFU CDHR5 (11726645_a_at) / Fold change /veh CDHR5 (11726645_a_at) / RFU RCAN1 (11760418_a_at) / Fold change /veh RCAN1 (11760418_a_at) / RFU FAM167A (11723789_a_at) / Fold change /veh FAM167A (11723789_a_at) / RFU FAM26E (11764081_at) / Fold change /veh FAM26E (11764081_at) / RFU ISYNA1 (11749810_s_at) / Fold change /veh ISYNA1 (11749810_s_at) / RFU ACY1 (11761880_at) / Fold change /veh ACY1 (11761880_at) / RFU 11764098_at / Fold change /veh 11764098_at / RFU SAMD14 (11745864_x_at) / Fold change /veh SAMD14 (11745864_x_at) / RFU NPB (11741838_a_at) / Fold change /veh NPB (11741838_a_at) / RFU TMPRSS6 (11731388_a_at) / Fold change /veh TMPRSS6 (11731388_a_at) / RFU KRTAP10-2 (11738614_at) / Fold change /veh KRTAP10-2 (11738614_at) / RFU ARHGAP8 /// PRR5-ARHGAP8 (11727945_x_at) / Fold change /veh ARHGAP8 /// PRR5-ARHGAP8 (11727945_x_at) / RFU KRTAP5-7 /// NADSYN1 (11734609_at) / Fold change /veh KRTAP5-7 /// NADSYN1 (11734609_at) / RFU RASL12 (11751679_a_at) / Fold change /veh RASL12 (11751679_a_at) / RFU CDKN2B (11736163_a_at) / Fold change /veh CDKN2B (11736163_a_at) / RFU PRF1 (11729649_at) / Fold change /veh PRF1 (11729649_at) / RFU, ZNF638 /// ZNF638-IT1 / Fold change vs veh, ZNF638 /// ZNF638-IT1 / RFU, PANK3 / Fold change vs veh, PANK3 / RFU, SH3YL1 / Fold change vs veh, SH3YL1 / RFU, ZEB2 / Fold change vs veh, ZEB2 / RFU, NRIP1 / Fold change vs veh, NRIP1 / RFU, PTTG1IP / Fold change vs veh, PTTG1IP / RFU, CAPN2 / Fold change vs veh, CAPN2 / RFU, MED14 / Fold change vs veh, MED14 / RFU, SNORA58 / Fold change vs veh, SNORA58 / RFU, C1orf63 / Fold change vs veh, C1orf63 / RFU, LRRFIP1 / Fold change vs veh, LRRFIP1 / RFU, NDUFAF7 / Fold change vs veh, NDUFAF7 / RFU, SLC12A2 / Fold change vs veh, SLC12A2 / RFU, IBTK / Fold change vs veh, IBTK / RFU, ESF1 / Fold change vs veh, ESF1 / Fold change vs veh, TMEM50B / RFU, TAOK1 / Fold change vs veh, TAOK1 / RFU, ACBD3 / Fold change vs veh, ACBD3 / RFU, TMA16 / Fold change vs veh, TMA16 / RFU, RWDD3 / Fold change vs veh, RWDD3 / RFU, BCAT1 / Fold change vs veh, BCAT1 / RFU, EDEM3 / Fold change vs veh, EDEM3 / RFU, TMEM33 / Fold change vs veh, TMEM33 / RFU, WDR75 / Fold change vs veh, WDR75 / RFU, AHCTF1 / Fold change vs veh, AHCTF1 / RFU, TFRC / Fold change vs veh, TFRC / RFU, ZDHHC17 / Fold change vs veh, ZDHHC17 / RFU, NOM1 / Fold change vs veh, NOM1 / RFU, ARL8B / Fold change vs veh, ARL8B / RFU, ZBTB11 / Fold change vs veh, ZBTB11 / RFU, TAMM41 / Fold change vs veh, TAMM41 / RFU, KIAA1704 /// LOC100996395 / Fold change vs veh, KIAA1704 /// LOC100996395 / RFU, ING1 / Fold change vs veh, ING1 / RFU, TRMT61B / Fold change vs veh, TRMT61B / RFU, FUBP3 / Fold change vs veh, FUBP3 / RFU, TP53 / Fold change vs veh, TP53 / RFU, TNKS2 / Fold change vs veh, TNKS2 / RFU, ZFP14 / Fold change vs veh, ZFP14 / RFU, ACTR2 / Fold change vs veh, ACTR2 / RFU, PPP3R1 / Fold change vs veh, PPP3R1 / RFU, PIK3R1 / Fold change vs veh, PIK3R1 / RFU, HNRNPA1 / Fold change vs veh, HNRNPA1 / RFU, RNF170 / Fold change vs veh, RNF170 / RFU, ZNF28 / Fold change vs veh, ZNF28 / RFU, RNGTT / Fold change vs veh, RNGTT / RFU, OGT / Fold change vs veh, OGT / RFU, BRD1 / Fold change vs veh, BRD1 / RFU, MARS / Fold change vs veh, MARS / RFU, ZNF655 / Fold change vs veh, ZNF655 / RFU, FAHD1 / Fold change vs veh, FAHD1 / RFU, BDP1 / Fold change vs veh, BDP1 / RFU, LRRCC1 / Fold change vs veh, LRRCC1 / RFU, ARID1A / Fold change vs veh, ARID1A / RFU, ZNF146 / Fold change vs veh, ZNF146 / RFU, ZNF330 / Fold change vs veh, ZNF330 / RFU, GPN3 / Fold change vs veh, GPN3 / RFU, C9orf123 / Fold change vs veh, C9orf123 / RFU, N4BP2L2 / Fold change vs veh, N4BP2L2 / RFU, ARFIP1 / Fold change vs veh, ARFIP1 / RFU, FAM179B / Fold change vs veh, FAM179B / RFU, BCL10 / Fold change vs veh, BCL10 / RFU, UHRF1BP1L / Fold change vs veh, UHRF1BP1L / RFU, BET1 / Fold change vs veh, BET1 / RFU, CNOT2 / Fold change vs veh, CNOT2 / RFU, ZNF268 / Fold change vs veh, ZNF268 / Fold change vs veh, ZNF507 / RFU, DGCR2 / Fold change vs veh, DGCR2 / RFU, WDSUB1 / Fold change vs veh, WDSUB1 / Fold change vs veh, HSP90B1 /// MIR3652 / RFU, ADSS / Fold change vs veh, ADSS / RFU, GK / Fold change vs veh, GK / RFU, ZNF148 / Fold change vs veh, ZNF148 / RFU, TAF9 / Fold change vs veh, TAF9 / RFU, SLC1A5 / Fold change vs veh, SLC1A5 / RFU, SLMO2 / Fold change vs veh, SLMO2 / RFU, ABCC4 / Fold change vs veh, ABCC4 / RFU, LOC101060439 /// RAP1B / Fold change vs veh, LOC101060439 /// RAP1B / RFU, RFX7 / Fold change vs veh, RFX7 / RFU, GTPBP10 / Fold change vs veh, GTPBP10 / RFU, CNEP1R1 / Fold change vs veh, CNEP1R1 / RFU, BIVM-ERCC5 /// ERCC5 / Fold change vs veh, BIVM-ERCC5 /// ERCC5 / RFU, ILF3 / Fold change vs veh, ILF3 / RFU 11762660_at / Fold change /veh 11762660_at / RFU VCAN (11757783_s_at) / Fold change /veh VCAN (11757783_s_at) / RFU DDX43 (11728927_at) / Fold change /veh DDX43 (11728927_at) / RFU KRT8 (11758188_x_at) / Fold change /veh KRT8 (11758188_x_at) / RFU NKD1 (11759106_at) / Fold change /veh NKD1 (11759106_at) / RFU SRD5A1 (11742802_a_at) / Fold change /veh SRD5A1 (11742802_a_at) / RFU TPSAB1 /// TPSB2 (11721975_s_at) / Fold change /veh TPSAB1 /// TPSB2 (11721975_s_at) / RFU GSTM3 (11746129_a_at) / Fold change /veh GSTM3 (11746129_a_at) / RFU IL23R (11737362_x_at) / Fold change /veh IL23R (11737362_x_at) / RFU TMEM51 (11727254_a_at) / Fold change /veh TMEM51 (11727254_a_at) / RFU PIWIL2 (11732686_x_at) / Fold change /veh PIWIL2 (11732686_x_at) / RFU ORM1 (11744905_x_at) / Fold change /veh ORM1 (11744905_x_at) / RFU CCDC152 (11743942_at) / Fold change /veh CCDC152 (11743942_at) / RFU ECM1 (11717891_a_at) / Fold change /veh ECM1 (11717891_a_at) / RFU IL23R (11748794_a_at) / Fold change /veh IL23R (11748794_a_at) / RFU TNFAIP8L3 (11732012_x_at) / Fold change /veh TNFAIP8L3 (11732012_x_at) / RFU MBOAT4 (11741988_at) / Fold change /veh MBOAT4 (11741988_at) / RFU 11764193_at / Fold change /veh 11764193_at / RFU TMEM53 (11763286_at) / Fold change /veh TMEM53 (11763286_at) / RFU MAGEB2 (11727129_at) / Fold change /veh MAGEB2 (11727129_at) / RFU TMEM200A (11744735_a_at) / Fold change /veh TMEM200A (11744735_a_at) / RFU CCDC152 (11751479_a_at) / Fold change /veh CCDC152 (11751479_a_at) / RFU FAM211A (11726209_a_at) / Fold change /veh FAM211A (11726209_a_at) / RFU RGS16 (11746705_a_at) / Fold change /veh RGS16 (11746705_a_at) / RFU VCAN (11755009_s_at) / Fold change /veh VCAN (11755009_s_at) / RFU RHOB (11743442_s_at) / Fold change /veh RHOB (11743442_s_at) / RFU RGS16 (11720943_a_at) / Fold change /veh RGS16 (11720943_a_at) / RFU RGS16 (11720944_at) / Fold change /veh RGS16 (11720944_at) / RFU, VPS4B / Fold change vs veh, VPS4B / RFU, CREB1 / Fold change vs veh, CREB1 / RFU, DNAJC13 / Fold change vs veh, DNAJC13 / RFU, GNAQ / Fold change vs veh, GNAQ / RFU, CDK5R1 / Fold change vs veh, CDK5R1 / RFU, ZRANB3 / Fold change vs veh, ZRANB3 / RFU, CUL4A / Fold change vs veh, CUL4A / RFU, CCNY / Fold change vs veh, CCNY / RFU, UFL1 / Fold change vs veh, UFL1 / RFU, COG3 / Fold change vs veh, COG3 / RFU, DIAPH2 / Fold change vs veh, DIAPH2 / RFU, SKA2 / Fold change vs veh, SKA2 / RFU, AFF3 / Fold change vs veh, AFF3 / RFU, LMF1 / Fold change vs veh, LMF1 / RFU, IPO11 / Fold change vs veh, IPO11 / RFU, DFFB / Fold change vs veh, DFFB / RFU, FOXP1 / Fold change vs veh, FOXP1 / RFU, CARD8 / Fold change vs veh, CARD8 / RFU, STRN3 / Fold change vs veh, STRN3 / RFU, ADK / Fold change vs veh, ADK / RFU, RASSF2 / Fold change vs veh, RASSF2 / RFU, WIPF1 / Fold change vs veh, WIPF1 / RFU, LARP1B / Fold change vs veh, LARP1B / RFU, RASA1 / Fold change vs veh, RASA1 / RFU, RB1 / Fold change vs veh, RB1 / RFU, PPFIA1 / Fold change vs veh, PPFIA1 / RFU, MAT2A / Fold change vs veh, MAT2A / RFU, CCT5 / Fold change vs veh, CCT5 / RFU, WDR92 / Fold change vs veh, WDR92 / RFU, CUX1 / Fold change vs veh, CUX1 / RFU, TTC7A / Fold change vs veh, TTC7A / RFU, TMEM135 / Fold change vs veh, TMEM135 / RFU, DEPTOR / Fold change vs veh, DEPTOR / RFU, CPM / Fold change vs veh, CPM / RFU, DNAJB6 / Fold change vs veh, DNAJB6 / RFU, CACNA2D3 / Fold change vs veh, CACNA2D3 / RFU, DTX4 / Fold change vs veh, DTX4 / RFU, TFCP2 / Fold change vs veh, TFCP2 / RFU, GMCL1 /// GMCL1P1 / Fold change vs veh, GMCL1 /// GMCL1P1 / RFU, AEBP2 / Fold change vs veh, AEBP2 / RFU, SNHG1 /// SNORD22 /// SNORD25 /// SNORD26 /// SNORD27 /// SNORD28 /// SNORD29 /// SNORD31 / Fold change vs veh, SNHG1 /// SNORD22 /// SNORD25 /// SNORD26 /// SNORD27 /// SNORD28 /// SNORD29 /// SNORD31 / Fold change (Aza/veh), C12orf56 (ProbeSet 11735607_a_at) / Fold change (ACY-1035/veh), C12orf56 (ProbeSet 11735607_a_at) / Fold change (Aza/veh), FGFR1OP (ProbeSet 11751329_s_at) / Fold change (ACY-1035/veh), FGFR1OP (ProbeSet 11751329_s_at) / Fold change (Aza/veh), VPS36 (ProbeSet 11739960_a_at) / Fold change (ACY-1035/veh), VPS36 (ProbeSet 11739960_a_at) / RFU SYPL1 (11715823_x_at) / Fold change /veh SYPL1 (11715823_x_at) / RFU IGFBP7 (11715501_s_at) / Fold change /veh IGFBP7 (11715501_s_at) / RFU REEP3 (11722064_at) / Fold change /veh REEP3 (11722064_at) / RFU IGLL1 (11728026_x_at) / Fold change /veh IGLL1 (11728026_x_at): dose or concentration left out as unconfirmed
Details: ProbeSet 11731610_x_at; LIST B

Which “RFU, KIAA1704 /// LOC100996395” value does the source give for `Nc1ncn([C@@H]2O[C@H](CO)[C@@H](O)[C@H]2O)c(=O)n1` [azacitidine] here?
Its value is 92.56 RFU.

From article PMC5218480 (PLoS ONE, 2017)
